Where a name gives a salt, the structure may show the parent alone. Bridge positions count the residues as written; N and C are the ends. Square brackets hold non-standard residues; d marks the D form. Side chains are listed from the residue outwards. Ends that are not written are not given here. Lys‑B1 = not defined here; EG2 = not defined here; Aib = CC(C)(N)C(=O)O
Columns and labels:
[1] = Body weight change 24 hours after single oral administration of amylin derivatives; format: in vivo; details: mice, bile acid absorption accelerator formulation
Description: After a single oral administration of a formulation using a combination of a large physiologically active substance and excipients to mice, body weight changes were confirmed for 24 hours.

[2] = tested on: Caco-2 cell monolayer; format: in vitro ADME
Description: Using the Caco-2 cell monolayer, changes in the permeability of markers for each permeation pathway due to excipients were evaluated using the following method. First, to form a Caco-2 cell monolayer, 1.5×10^5 cells per well were dispensed in a 12-Transwell plate and cultured for 3 to 4 weeks under 37° C. CO2 conditions. For the first week, the culture medium was changed once every two days, and thereafter, the culture medium was changed every three days. In the experiment, samples between 3 and 4 weeks after seeding were used. To verify the formation of a cell monolayer, TEER values and Lucifer yellow values were measured, and only cell monolayer membranes having a TEER value of 300 Ω·cm^2 or more and a measured transmittance of Lucifer yellow within 3% were used in the test. After the Transwells to be used for each test were washed using transport media (HBSS) and incubated in a 37° C. CO2 incubator for 1 hour, 500 μL of bile acid derivatives and permeability marker were added to the apical side, and 1.5 mL of drug-free transport media was treated onto the basolateral side, and incubation was performed for 2 hours in a 37° C. CO2 incubator thereafter. At this time, fluorescein isothiocyanate-dextran (FD4) was used as a paracellular marker, and metoprolol was used as a transcellular marker to confirm the change in permeability coefficient according to bile acid derivative treatment. […]

[3] = tested on: Caco-2 cells
Description: The cytotoxicity of excipients was evaluated using Caco-2 cells using the following method. First, to check the amount of intracellular accumulation, Caco-2 cells were distributed in a 96-well plate at 1×10^5 per well and cultured in a CO2 incubator at a temperature of 37° C. The culture solution from each well is removed and replacement by a new culture medium is performed. After that, […] of the prepared excipient was added and this was cultured in a CO2 incubator at 37° C. After 2 hours, each well was treated with 100 µL of luciferase reagent (Promega, #G7571) and incubated at room temperature. After 10 minutes, the luminescence value of each well was measured. […] [formula]

[4] = tested on: Caco-2 cell monolayer; format: in vitro ADME; remark: listed apart in the source
Description: First, to form a Caco-2 cell monolayer, 1.5×10^5 cells per well were dispensed in a 12-Transwell plate and this was cultured for 3 to 4 weeks under 37° C. CO2 conditions. For the first week, the culture medium was changed once every two days, and thereafter, the culture medium was changed every three days. In the experiment, samples between 3 and 4 weeks after seeding were used. To verify the formation of a cell monolayer, TEER values and Lucifer yellow values were measured; only cell monolayer membranes having a TEER value of 300 Ω·cm^2 or more and a measured transmittance of Lucifer yellow within 3% were used in the test. After washing the Transwell to be used for each test using transport media (HBSS), incubation was performed for 1 hour in a 37° C. CO2 incubator; then, 500 μL each of large physiologically active substance (50 μM) and bile acid derivatives (100 μM) were added to the apical side, and 1.5 mL of drug-free transport media was treated onto the basolateral side. Subsequently, incubation was performed for 2 hours in a 37° C. CO2 incubator.
[formula] • (*dCr-concentration of the permeated sample, dt-drug treatment time, Vr-basolateral volume, A-Transwell area, C0-initial applied drug concentration)

[5] = Cmax after duodenal administration of Compounds 23 and 24; design: species or system experimental rats; details: rat, in vivo; rats, duodenum; CDC 68 mg/kg, PG 34 mg/kg; Compound 23 5.4 mg/kg, Compound 24 6.2 mg/kg
Description: A large physiologically active substance (Compound 24) was formulated by dissolving it in the corresponding vehicle (0.02% polysorbate 80 in 10 mM PBS (pH 7.4)) with the excipient composition shown in Table 6 above. After administering the above formulation to the duodenum of experimental rats, Cmax was compared. The corresponding results were compared with the results obtained by administering Compound 23, a large physiologically active substance without a biotin moiety, in the same formulation, and are shown in Table 7 below.

[6] = tested on: monolayer membrane of Caco-2 cells; assay: Tight junction openness by change in TEER value, Caco-2 monolayer; format: cell-based; details: apical treatment, 0-120 min, FIG. 2
Description: First, to form a Caco-2 cell monolayer, 1.5×10^5 cells per well was dispensed in a 12-Transwell plate and cultured for 3 to 4 weeks under 37° C. CO2 conditions. For the first week, the culture medium was changed once every two days, and thereafter, the culture medium was changed every three days. In the experiment, samples between 3 and 4 weeks after seeding were used. To evaluate the degree of damage to the Caco-2 cell monolayer by excipients, the degree of cells cultured as a monolayer on a semi-permeable membrane was measured by the difference in electrical resistance between the apical side and the basolateral side. First, the Transwell to be used in each test is washed using a washing buffer (HBSS), replaced by culture medium, and equilibrated in a 37° C. CO2 incubator for 15 minutes. After adding 500 μL of the prepared excipient to the apical side and treating the basolateral side with 1.5 mL of culture medium containing no excipient, changes in TEER values were measured using a Millicell ERS-2 Voltohmmeter at each time point (0, 5, 15, 30, 45, 60, 90, 120 min) from the time of treatment.

[7] = Weight loss, appetite suppression and anti-diabetic efficacy, oral Compound 17 formulation in obese mice; format: in vivo, mice (C57BL/6); details: high-fat diet obese C57BL/6 mice; Compound 17 300 to 1000 nmol/kg oral daily 3 weeks; CDC 6.8, UDC 13.6, PG 13.6 mg/mL; FIGS. 11 to 13
Description: After oral administration of a formulation containing a large physiologically active substance (Compound 17) and excipients to mice, changes in mouse body weight and anti-diabetic efficacy were confirmed. Specifically, the administered dose of Compound 17 used 300 to 1000 nmol/kg, and the excipient concentrations in the administered formulation used CDC 6.8 mg/mL, UDC 13.6 mg/mL, and PG 13.6 mg/mL. The vehicle used 0.02% polysorbate 80 in 10 mM PBS (pH 7.4). Obese mice were induced by feeding high-fat diet to 6-week-old male mice (C57BL/6) for 16 weeks; then weight changes were confirmed by oral administration of the GLP-1/Glucagon receptor dual agonist (Compound 17), which combines biotin and fatty acid moieties, every day for 3 weeks using a bile acid absorption accelerator formulation.

Molecule: 26: Amylin, SEQ No. 14: KCNTATCATQRLANFLVHSSNNFGPILPPTNVGSNTY; K1: Lys-B1 (K*) ([Lys‑B1]CNTATCATQRLANFLVHSSNNFGPILPPTNVGSNTY; ends and bridges not checked) [Compound 26]
- body weight change after 24 hours [1]: weight loss was confirmed

Molecule: 27: Amylin, SEQ No. 14: KCNTATCATQRLANFLVHSSNNFGPILPPTNVGSNTY; K1: αLys-EG2-Glu-C18 (*K); K1: Lys-B1 (K*) ({C18-Glu-EG2}-[Lys‑B1]CNTATCATQRLANFLVHSSNNFGPILPPTNVGSNTY; not fully specified; ends and bridges not checked) [Compound 27]
- body weight change after 24 hours [1]: weight loss was confirmed

Molecule: 29: Amylin, SEQ No. 15: KCNTATCATQRLADFLRHSSPNFGAIPSSTNVGSRTY; K1: Lys-B1 (K*) ([Lys‑B1]CNTATCATQRLADFLRHSSPNFGAIPSSTNVGSRTY; ends and bridges not checked) [Compound 29]
- body weight change after 24 hours [1]: weight loss was confirmed

Molecule: 30: Amylin, SEQ No. 15: KCNTATCATQRLADFLRHSSPNFGAIPSSTNVGSRTY; K1: αLys-EG2-Glu-C18 (*K); K1: Lys-B1 (K*) ({C18-Glu-EG2}-[Lys‑B1]CNTATCATQRLADFLRHSSPNFGAIPSSTNVGSRTY; not fully specified; ends and bridges not checked) [Compound 30]
- body weight change after 24 hours [1]: weight loss was confirmed

Molecule: 32: Amylin, SEQ No. 16: KCNTATCATQRLADFLRHSSNNFGAIPSSTNVGSRTY; K1: Lys-B1 (K*) ([Lys‑B1]CNTATCATQRLADFLRHSSNNFGAIPSSTNVGSRTY; ends and bridges not checked) [Compound 32]
- body weight change after 24 hours [1]: weight loss was confirmed

Molecule: 33: Amylin, SEQ No. 16: KCNTATCATQRLADFLRHSSNNFGAIPSSTNVGSRTY; K1: αLys-EG2-Glu-C18 (*K); K1: Lys-B1 (K*) ({C18-Glu-EG2}-[Lys‑B1]CNTATCATQRLADFLRHSSNNFGAIPSSTNVGSRTY; not fully specified; ends and bridges not checked) [Compound 33]
- body weight change after 24 hours [1]: weight loss was confirmed

Molecule: 35: Amylin, SEQ No. 17: RCNTATCATQRLADFLRHSSNNFGAIPSSTNVGSKTY; K35: Lys-B1 (K*) (RCNTATCATQRLADFLRHSSNNFGAIPSSTNVGS[Lys‑B1]TY; ends and bridges not checked) [Compound 35]
- body weight change after 24 hours [1]: weight loss was confirmed

Molecule: 36: Amylin, SEQ No. 17: RCNTATCATQRLADFLRHSSNNFGAIPSSTNVGSKTY; R1: αArg-EG2-Glu-C18 (*R); K35: Lys-B1 (K*) ({C18-Glu-EG2}-RCNTATCATQRLADFLRHSSNNFGAIPSSTNVGSKTY; not fully specified (some residues); ends and bridges not checked) [Compound 36]
- body weight change after 24 hours [1]: weight loss was confirmed

Molecule: C[C@H](CCC(=O)O)[C@H]1CC[C@H]2[C@@H]3[C@H](O)C[C@@H]4C[C@H](O)CC[C@]4(C)[C@H]3CC[C@]12C [CDC, Chenodeoxycholic acid or its salt]
- effect on paracellular (FD4) and transcellular (metoprolol) transport [2]: promotes both paracellular transport and transcellular transport
- cytotoxicity (cell viability) [3]: similar
- effect of improving the permeability of large physiologically active substances [4]: had an effect of improving the permeability

Molecule: CC[C@H](C)[C@H](NC(=O)[C@H](CCC(=O)O)NC(=O)[C@H](CO)NC(=O)[C@@H](NC(=O)[C@@H](N)CO)C(C)C)C(=O)N[C@@H](CCC(N)=O)C(=O)N[C@@H](CC(C)C)C(=O)N[C@@H](CCSC)C(=O)N[C@@H](Cc1cnc[nH]1)C(=O)N[C@@H](CC(N)=O)C(=O)N[C@@H](CC(C)C)C(=O)NCC(=O)N[C@@H](CCCCN)C(=O)N[C@@H](Cc1cnc[nH]1)C(=O)N[C@@H](CC(C)C)C(=O)N[C@@H](CC(N)=O)C(=O)N[C@@H](CO)C(=O)N[C@@H](CCSC)C(=O)N[C@@H](CCC(=O)O)C(=O)N[C@@H](CCCN=C(N)N)C(=O)N[C@H](C(=O)N[C@@H](CCC(=O)O)C(=O)N[C@@H](Cc1c[nH]c2ccccc12)C(=O)N[C@@H](CC(C)C)C(=O)N[C@@H](CCCN=C(N)N)C(=O)N[C@@H](CCCCN)C(=O)N[C@@H](CCCCN)C(=O)N[C@@H](CC(C)C)C(=O)N[C@@H](CCC(N)=O)C(=O)N[C@@H](CC(=O)O)C(=O)N[C@H](C(=O)N[C@@H](Cc1cnc[nH]1)C(=O)N[C@@H](CC(N)=O)C(=O)N[C@@H](Cc1ccccc1)C(=O)O)C(C)C)C(C)C [Compound 23]
- Cmax [5]: 30 ng/mL

Molecule: C[C@H](CCC(=O)O)[C@H]1CC[C@H]2[C@@H]3CC[C@@H]4C[C@H](O)CC[C@]4(C)[C@H]3C[C@H](O)[C@]12C [DC, Deoxycholic acid or its salt]
- cytotoxicity (cell viability) [3]: similar

Molecule: CCCOC(=O)c1cc(O)c(O)c(O)c1 [PG, Propyl gallate]
- tight junction openness according to the change in TEER value [6]: non-tight junction openness

Molecule: C[C@H](CCC(=O)O)[C@H]1CC[C@H]2[C@@H]3[C@@H](O)C[C@@H]4C[C@H](O)CC[C@]4(C)[C@H]3CC[C@]12C [UDC, Ursodeoxycholic acid or its salt]
- effect on paracellular (FD4) and transcellular (metoprolol) transport [2]: no enhancing effect on the two transport mechanisms
- cytotoxicity (cell viability) [3]: least cytotoxicity
- tight junction openness according to the change in TEER value [6]: non-tight junction openness

Molecule: Compound 17: GLP-1/GCGRA, SEQ No. 8: H-Aib-QGTFTSDYSKYLDEQAAKEFVQWLMNTK; (Lactam) between E16 and K20; K12: Lys-B1 (K*); K30: Lys-EG2-Glu-C18 (K*) (H-H[Aib]QGTFTSDYSKYLDEQAAKEFVQWLMNTK([EG2-Glu-C18]); lactam 16-20; not fully specified (residue 12); reading uncertain)
- anti-diabetic efficacy [7]: anti-diabetic effect
- body weight change [7]: weight loss
- feed intake [7]: reduction of feed intake

Source: patent US20250127723A1, “PHARMACEUTICAL COMPOSITION COMPRISING LARGE PHYSIOLOGICALLY ACTIVE SUBSTANCE AND EXCIPIENT” (priority 2021, published 2025)
